Results from ChEMBL document CHEMBL1201862, “PubChem BioAssay data set” (2004).
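1) Cells in 96-well plates. 2) Compound, 48 h, 5 concentrations. 3) Linear interpolation between surrounding doses. 4) Unreached endpoint = highest concentration. Abbreviation: GI50, concentration required for 50% inhibition of growth.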 Active and inactive are the calls of the source. No stated cut-off is given here; in the data, active = GI50 up to about 1.1 µM and inactive = higher.

Legend:
Assay in all cases: growth of human tumour cells (NCI), 48 h
786-0 = system: 786-0
MDA-N = system: MDA-N
T47D = system: T47D
Hs-578T = system: Hs-578T
MDA-MB-435 = system: MDA-MB-435
MDA-MB-231 = system: MDA-MB-231
BT-549 = system: BT-549
PC-3 = system: PC-3

## Cc1cc(C)nc(NS(=O)(=O)c2ccc(NC(=O)c3cccn4c(=O)c5ccccc5nc34)cc2)n1
786-0
  GI50: > 100 µM (inactive)

## CCCCN1CN2C(=O)C(C(=O)OCC)C(=O)c3sc4nc(SC)nc1c4c32 (stereo not given)
MDA-N
  GI50: 17.1 µM (inactive)
T47D
  GI50: 19.7 µM (inactive)
Hs-578T
  GI50: < 0.01 µM (active)
MDA-MB-435
  GI50: 18.2 µM (inactive)
MDA-MB-231
  GI50: 17.9 µM (inactive)
BT-549
  GI50: 16.6 µM (inactive)
PC-3
  GI50: 19.2 µM (inactive)

## CCOC(=O)c1ccc(C)c(/N=N/N(C)C)c1
786-0
  GI50: > 100 µM (inactive)

## COc1ccc(CN/C=N/C(C#N)=C(\N)C#N)cc1OC
MDA-N
  GI50: > 100 µM (inactive)
T47D
  GI50: 83.6 µM (inactive)
786-0
  GI50: > 100 µM (inactive)
Hs-578T
  GI50: > 100 µM (inactive)
MDA-MB-435
  GI50: > 100 µM (inactive)
MDA-MB-231
  GI50: > 100 µM (inactive)
BT-549
  GI50: 72.3 µM (inactive)
PC-3
  GI50: > 100 µM (inactive)

## CN(C)CC(C)(C)/C(=N\Nc1ccccc1)c1ccccc1
786-0
  GI50: 45.3 µM (inactive)

## CCCCS(=N)(=O)CC[C@H](N)C(=O)O (stereo not given in full) [BUTHIONINE SULFOXIME]
MDA-N
  GI50: > 10000 µM (inactive)
T47D
  GI50: > 5000 µM (inactive)
Hs-578T
  GI50: > 2810 µM (inactive)
MDA-MB-435
  GI50: > 5000 µM (inactive)
MDA-MB-231
  GI50: > 5000 µM (inactive)
BT-549
  GI50: > 5000 µM (inactive)
PC-3
  GI50: > 5000 µM (inactive)
